Residue numbers refer to the chain shown, from its start. Blank lines part the entries; values can stand above or below the molecule they belong to.
Key:
MTP = molecular target: T1, MTP (Mus musculus, UniProt O08601); test: Triglyceride transfer assay in splenocyte lysates; assay type: biochemical; details: splenocyte lysate with inhibitor added
T1 construct: Splenocyte lysates contained measurable triglyceride transfer activity; endogenous in cells; host or cells: primary mouse splenocytes (crude lysate)
T1 sequence (O08601 22-894): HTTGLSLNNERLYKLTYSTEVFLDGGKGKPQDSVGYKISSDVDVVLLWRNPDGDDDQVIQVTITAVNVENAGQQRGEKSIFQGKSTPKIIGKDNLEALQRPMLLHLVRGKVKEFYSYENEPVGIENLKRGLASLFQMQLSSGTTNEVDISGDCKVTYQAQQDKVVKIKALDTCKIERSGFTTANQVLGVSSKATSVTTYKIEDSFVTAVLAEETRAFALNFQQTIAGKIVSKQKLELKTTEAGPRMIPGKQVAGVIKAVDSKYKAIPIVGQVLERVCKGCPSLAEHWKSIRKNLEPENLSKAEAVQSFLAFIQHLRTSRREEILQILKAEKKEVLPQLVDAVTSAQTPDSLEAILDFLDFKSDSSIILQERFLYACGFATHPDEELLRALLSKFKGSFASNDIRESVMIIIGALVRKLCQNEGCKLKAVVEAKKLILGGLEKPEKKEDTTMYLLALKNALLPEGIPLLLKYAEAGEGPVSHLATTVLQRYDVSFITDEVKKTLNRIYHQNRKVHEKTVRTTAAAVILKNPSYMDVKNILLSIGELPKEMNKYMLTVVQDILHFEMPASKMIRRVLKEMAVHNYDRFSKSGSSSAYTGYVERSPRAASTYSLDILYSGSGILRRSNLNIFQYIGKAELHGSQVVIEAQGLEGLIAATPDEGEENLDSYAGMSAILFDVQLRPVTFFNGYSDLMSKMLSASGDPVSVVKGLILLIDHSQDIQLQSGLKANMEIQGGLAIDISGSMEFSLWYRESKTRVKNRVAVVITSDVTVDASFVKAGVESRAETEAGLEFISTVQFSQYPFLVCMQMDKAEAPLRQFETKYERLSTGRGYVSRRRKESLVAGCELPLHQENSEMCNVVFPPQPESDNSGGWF
T1 sequence (P09103 20-509 partner): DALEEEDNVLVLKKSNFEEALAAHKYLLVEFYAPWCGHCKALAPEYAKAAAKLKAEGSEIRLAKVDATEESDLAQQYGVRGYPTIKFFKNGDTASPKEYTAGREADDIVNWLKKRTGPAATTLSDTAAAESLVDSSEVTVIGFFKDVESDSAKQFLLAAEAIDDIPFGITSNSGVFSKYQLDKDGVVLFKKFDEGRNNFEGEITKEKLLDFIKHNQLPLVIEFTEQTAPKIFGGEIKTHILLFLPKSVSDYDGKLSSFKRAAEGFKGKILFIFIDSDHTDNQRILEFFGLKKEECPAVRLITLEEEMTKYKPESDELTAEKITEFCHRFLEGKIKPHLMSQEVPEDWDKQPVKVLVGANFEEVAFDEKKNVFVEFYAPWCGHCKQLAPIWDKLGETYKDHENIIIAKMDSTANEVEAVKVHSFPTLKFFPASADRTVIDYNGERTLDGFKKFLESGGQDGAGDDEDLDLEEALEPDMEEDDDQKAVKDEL
Description: FIG. 15C is a line graph showing triglyceride transfer activity in 100 ug splenocyte lysate (Δ), 50 μg splenocyte lysate (◯), 100 μg splenocyte lysate with BMS197636 (▴), and 50 μg splenocyte lysate with BMS197636 (●). Assays were in triplicate with standard deviations less than 10% of percent transfer at 3 hours.
(§1) The triglyceride transfer activity of MTP was measured using donor phospholipids vesicles (Chylos Inc.) as described. PE transfer was done by overnight coating of a microtiter plate with 2 ug per well recombinant murine CD1d purified by baculovirus expression system. Wells were washed with PBS, incubated with PBS containing 0.5% isopropanol for 2 hours at 37° C., and washed again with PBS. […] Fluorescence was read with a fluorescence plate reader (7620 Microplate Fluorimeter; Cambridge Technology, Watertown, Mass.) using 460 nm excitation and 530 nm emission wavelengths.
In this assay, MTP function is assessed by studying the transfer of fluorescently labeled triglycerides embedded in donor phospholipid vesicles to acceptor vesicles. During the transfer, the amount of triglyceride associated with MTP can be measured as an increase in fluorescence over time. […]

C1Rd cells = test: C1Rd cell CD1d-mediated activation of human peripheral blood derived iNKT cell line with PMA (IFN-gamma); assay type: cell-based; details: limiting concentration of PMA
Description: FIG. 20E is a line chart showing IFN-gamma production in C1Rd cells cultured with BMS197636 or vehicle and incubated with NKT cell lines derived from human peripheral blood in the presence of 1 ng/mL PMA.
APCs were incubated with 100 ng/mL α-galcer (kindly provided by Dr. H. Ploegh) for 3 hours, washed three times in PBS and aliquoted into a 96 well plate at 10^6 cells/mL. DN32 cells were added at 1:1 E:T ratio unless otherwise indicated. CD4^+ cells were isolated from spleens of OT-II transgenic mice using positive selection on CD4 magnetic beads (Miltenyi Biotec) and incubated with APCs and 100 μg/mL ovalbumin. The 24.8 NKT cell line was incubated with APCs in the absence of added antigen at E:T=2:1 unless otherwise indicated. Mouse IL-2 production was assessed by ELISA (OptEIA, BD PharMingen) of 24 or 40 hour culture supernatants. APCs were treated with BMS212122 (10 uM dissolved in DMSO; kindly provided by Bristol Myers Squibb, New Jersey) as indicated and washed prior to addition of T or NKT cells. […]
C1Rd is a human B cell line transfected with human CD1d. […] Incubation of C1Rd cells with BMS212122, but not the vehicle, inhibited the presentation of α-galcer as determined by a reduction in IL-2 secretion (FIG. 20D).

recombinant murine CD1d = molecular target: T2, recombinant murine CD1d (Mus musculus, UniProt P11609); test: PE transfer assay from MTP to recombinant CD1d; assay type: biochemical; details: 0.5 μg purified MTP, PE:NBD vesicles, 2 hours 37 degrees
T2 construct: made in house; host or cells: baculovirus expression system (CD1d); rat liver (MTP)
T2 sequence (P11609 22-305 limits assumed): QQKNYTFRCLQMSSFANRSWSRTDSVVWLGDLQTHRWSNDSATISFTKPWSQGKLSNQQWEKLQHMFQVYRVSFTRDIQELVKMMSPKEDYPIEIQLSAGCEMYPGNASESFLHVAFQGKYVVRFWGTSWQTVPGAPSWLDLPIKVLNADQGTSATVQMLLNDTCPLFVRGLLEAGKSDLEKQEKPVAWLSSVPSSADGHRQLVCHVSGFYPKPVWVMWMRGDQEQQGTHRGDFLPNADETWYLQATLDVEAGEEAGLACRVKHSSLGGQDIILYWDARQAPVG
T2 sequence (P01887 21-119 partner): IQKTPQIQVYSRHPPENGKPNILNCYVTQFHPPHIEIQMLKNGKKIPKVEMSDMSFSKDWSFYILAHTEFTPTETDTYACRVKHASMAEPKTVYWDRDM
Description: FIG. 16A is a bar chart showing purified MTP transfers a lipid to recombinant CD1d in vitro. Two micrograms of BSA or recombinant CD1d were coated onto microtiter wells and incubated with either PE:NBD vesicles alone or PE:NBD vesicles plus 0.5 μg purified MTP. Results are representative of five independent experiments. *, p<0.005
as §1, with “system.” for “system. Wells were washed with PBS, incubated with PBS containing 0.5% isopropanol for 2 hours at 37° C., and washed again with PBS.”
Recombinant β2m associated CD1d was coated onto a 96 well plate and incubated with liposomes containing a 6:1 ratio of unlabeled PE:NBD-labeled PE. […] Lipids bound to CD1d were eluted with isopropanol, transferred to a black microtiter plate, and the level of fluorescence determined. […] Assuming equal efficiency of MTP-mediated transfer of labeled versus unlabeled PE to the CD1d pocket and that all CD1d molecules bound to the plastic in an orientation with the groove solvent accessible, we calculated that the maximum limit of NBD-labeled PE that could be transferred to CD1d was 4.7 picomoles in this assay. […]

Molecule: 9-[4-[[[4′-(trifluoromethyl)[1,1′-biphenyl]-2-yl]carbonyl]amino]butyl-piperidin-4-yl]-N-(2,2,2-trifluoroethyl)-9H-fluorene-9-carboxamide [BMS197636]
triglyceride transfer activity of splenocyte lysates (MTP): abrogated | CD1d-mediated activation of human peripheral blood derived iNKT cell line (C1Rd cells): dose-dependent inhibition

increase in fluorescence above background (PE transferred to CD1d) (recombinant murine CD1d): 5 fold
B1: MTP: microsomal triglyceride transfer protein purified from rat liver (>95% pure by SDS-PAGE) (protein)
chain 1: T1 sequence (O08601 22-894) with G633K, K634G, A635T, V779L, E851Q
chain 2: T1 sequence (P09103 20-509 partner)

— patent US20050234073A1, “Methods of inhibiting inflammation” (priority 2003, published 2005)
